Results published in patent US20220354811A1, “METHODS AND COMPOSITIONS FOR MODULATING MACROPHAGES POLARIZATION” (INSERM (INSTITUT NATIONAL DE LA SANTÉ ET DE LA RECHERCHE …, priority 2019, published 2022).

System: human primary monocytes
Assay: CSF-1-induced monocyte differentiation into macrophages (flow cytometry, CD71/CD163 and CD16/CD163 double positive cells)
Type: cell-based
From the text: FIG. 1. […] (A) Macrophagic differentiation of monocytes from 3 different healthy donors was examined by 3-color flow cytometric analysis. The results are expressed as percentage of CD71/CD163 or CD16/CD163 double positive cells and represent the mean±SD of 3 independent experiments performed in duplicate. (B) Cell death from 3 different healthy donors was examined by flow cytometry analysis. The results are expressed as percentage of AnnexinV/DAPI double positive cells and represent the mean±SD of 3 independent experiments performed in duplicate. n.s. denotes not statistically significant according to a paired student t test. *P<0.05, **P<0.01, ***P<0.001 according to a paired student t test (versus d2).
FIG. 2. […] Macrophagic differentiation of monocytes from 3 different healthy donors was examined by 3-color flow cytometric analysis. The results are expressed as percentage of CD71/CD163 or CD16/CD163 double positive cells and represent the mean±SD of 3 independent experiments performed in duplicate. n.s. denotes not statistically significant according to a paired student t test. *P<0.05, **P<0.01, ***P<0.001 according to a paired student t test (versus d2).
Human peripheral […] were obtained from healthy donors with informed consent following the Declaration of Helsinki according to recommendations of an independent scientific review board. The project has been validated by The Etablissement Francais du Sang, the French national agency for blood collection (protocol N°ALM/PLER/FO/001). Blood samples were collected using ethylene diamine tetraacetic acid-containing tubes. Mononucleated cells were first isolated using Ficoll Hypaque (Eurobio, CMSMSL0101). Then, we used the autoMACS® Pro Separator (Miltenyi, France) to perform cell enrichment. An initial positive selection, which included antibody targeting CD14, was used for monocyte enrichment (Miltenyi, 130-050-201). Purified monocytes from human were grown in RPMI 1640 medium with glutamax-I (Life Technologies, 61870044) supplemented with 10% (vol/vol) foetal bovine serum (Life Technologies). Macrophage differentiation was induced by adding into the culture medium 100 ng/mL CSF-1 and was visualized using standard optics (20x/0.35 Ph1) equipped with an AxioCam ERc camera (Zeiss, France). Phase images of the cultures were recorded with the Zen 2 software (Zeiss).
To analyze the macrophagic differentiation of monocytes, the cells were washed with ice-cold phosphate buffered saline (PBS, Life Technologies, 14190169), incubated at 4° C. for 10 min in PBS/bovine serum albumin (BSA 0.5%, Dutscher, 871002) with anti-CD16, anti-CD71 and anti-CD163 or isotype controls (Miltenyi and BD Biosciences, catalog numbers were 130-113-396, 130-097-628 and 551374). Finally, the cells were washed and fixed in 2% paraformaldehyde (EMS, 15710). To perform macrophage polarization, purified monocytes were plated at 0.3×10^6 per mL in RPMI 1640 medium with glutamax-I supplemented with 10% (vol/vol) fetal bovine serum plus CSF-1 for 5+2 days to differentiate into M0 macrophages. 20 ng/mL IL-4 (Miltenyi, 130-094-117) was added after 5 days of differentiation for two days to polarize into M2-macrophages. […] Fluorescence was measured with a MACSQuant® Analyzer (Miltenyi, Paris, France). […] Fluorescence was measured with a MACSQuant® Analyzer (Miltenyi, Paris, France). […]

SMILES: CC(C)[C@H](NC(=O)c1ccc2ccccc2n1)C(=O)N[C@@H](CC(=O)O)C(=O)COc1c(F)cccc1F [Q-VD-OPh]
- concentration range of dose-dependent inhibition of macrophagic differentiation (added at day 0 only, inhibition weak compared to Emricasan): 75 to 125 µM
- concentrations with significant inhibitory effect on monocyte differentiation (only when added twice (day 0 and day 1), several donors): 100 to 125 µM
- concentration necessary to achieve inhibition identical to Emricasan (same-experiment comparison, 2 successive treatments (days 0 and 1)): 100 µM

SMILES: C[C@H](NC(=O)C(=O)Nc1ccccc1C(C)(C)C)C(=O)N[C@@H](CC(=O)O)C(=O)COc1c(F)c(F)cc(F)c1F [Emricasan, (S)-3-((S)-2-(2-((2-(tert-Butyl)phenyl)amino)-2-oxoacetamido)propanamido)-4-oxo-5-(2,3,5,6-tetrafluorophenoxy)pentanoic acid]
- concentrations with strong inhibitory effect on macrophagic differentiation (CSF-1 2 days, Emricasan added at day 0, three different donors): 1 to 2 µM
- concentration range that efficiently inhibited monocyte differentiation (same-experiment comparison, added only one time, CSF-1 2 days): 1.5 to 2.5 µM
